Measured values: patent US7855205B2, “Pyrimidinyl substituted fused-pyrrolyl compounds useful in treating kinase disorders” (Janssen Pharmaceutica NV, priority 2004, dated 2010)

Key:
A375 malignant melanoma = assay: Inhibition of cell proliferation (14C-thymidine incorporation), A375; type: cell-based, human; details: Homo sapiens, A-375
In short: (§1)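 Cells (3000-8000/well) grown 24 h at 37° C, 5% CO2, then given compound in DMSO for 24 h before adding methyl 14C-thymidine (0.2 uCi/well) for a further 24 h with drug. After PBS washes, incorporation into DNA counted by scintillation.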

VEGF-R2 = target: T1, VEGF-R2 (Rattus norvegicus, UniProt O08775); assay: VEGF-R2 Screening Assay; type: biochemical; details: 33P-γ-ATP incorporation, 10 μM ATP
T1 construct: polyhistidine (N)
In short: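 The N-terminally His-tagged rat VEGF-R2 kinase domain (aa 786-1343), diluted in 50 mM Tris-HCl pH 8.0 with 0.1% BSA, phosphorylated a biotinylated histone-H1 peptide with 33P-γ-ATP on Flashplates for 1 h at 30 °C in 1% DMSO. After washes with EDTA/PBS, immobilized 33P was counted by scintillation.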

CDK1:Cyclin-B = target: T2, CDK1:Cyclin-B (Homo sapiens, UniProt P06493); assay: CDK1 Screening Assay; type: biochemical; details: 33P-γ-ATP incorporation, 10 μM ATP
T2 construct: purchased New England Biolabs, Beverly, Mass; 6020; host or cells: insect cells
In short: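 Human CDK1/cyclin B co-expressed in insect cells (30 ng/well) in 50 mM Tris pH 8, 10 mM MgCl2, with 10 μM ATP, 33P-γ-ATP and 0.025 μM biotinylated histone H1 peptide (reaction-mix levels); 1% DMSO final. 1 h at 30° C. 33P incorporation into streptavidin-captured peptide by scintillation counting.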

Aurora-A = target: T3, Aurora-A (Mus musculus, UniProt P97477); assay: Aurora-A Screening Assay; type: biochemical, murine; details: 33P-γ-ATP incorporation, 10 μM ATP
T3 construct: made in house; host or cells: sf9 insect cells
T3 sequence (P97477 1-395): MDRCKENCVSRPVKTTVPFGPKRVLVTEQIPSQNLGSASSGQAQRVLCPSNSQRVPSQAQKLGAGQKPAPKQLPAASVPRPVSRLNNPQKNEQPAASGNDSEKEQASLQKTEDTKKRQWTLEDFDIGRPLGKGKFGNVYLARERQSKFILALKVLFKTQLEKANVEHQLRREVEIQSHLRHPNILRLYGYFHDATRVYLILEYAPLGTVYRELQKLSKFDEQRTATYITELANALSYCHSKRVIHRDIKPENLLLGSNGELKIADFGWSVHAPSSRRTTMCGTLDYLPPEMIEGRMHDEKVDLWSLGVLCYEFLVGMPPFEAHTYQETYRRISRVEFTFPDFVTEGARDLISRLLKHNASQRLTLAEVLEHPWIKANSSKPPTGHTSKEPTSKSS

RET = target: T4, RET (Homo sapiens, UniProt P07949); assay: RET Kinase Screening Assay; type: biochemical; details: 33P-γ-ATP incorporation, 10 μM ATP
T4 construct: the RET cytoplasmic domain consisting of the last 492 amino acids of the intracellular domain of the RET tyrosine kinase; histidine tag (N); made in house; host or cells: Hi5 insect cells
T4 sequence (P07949 658-1114 limits assumed): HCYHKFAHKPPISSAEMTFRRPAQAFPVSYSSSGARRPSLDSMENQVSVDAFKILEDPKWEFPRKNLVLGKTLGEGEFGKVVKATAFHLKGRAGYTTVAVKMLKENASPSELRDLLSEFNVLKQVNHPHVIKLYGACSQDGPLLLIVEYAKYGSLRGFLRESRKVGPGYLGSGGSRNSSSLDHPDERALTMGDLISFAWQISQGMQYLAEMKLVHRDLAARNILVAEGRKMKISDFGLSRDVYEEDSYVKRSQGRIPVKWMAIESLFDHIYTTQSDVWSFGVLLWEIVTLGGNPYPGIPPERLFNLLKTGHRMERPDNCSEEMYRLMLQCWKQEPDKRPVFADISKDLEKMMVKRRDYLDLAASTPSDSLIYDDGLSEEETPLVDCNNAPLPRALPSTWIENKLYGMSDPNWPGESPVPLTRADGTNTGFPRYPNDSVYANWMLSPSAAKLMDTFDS

[1] = tested on: HeLa cervical adenocarcinoma; assay: Inhibition of cell proliferation (14C-thymidine incorporation), HeLa; type: cell-based; details: Homo sapiens;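 further: HeLa cells in 96-well scintillating plates, compound for 24 h then 24 h more with 14C-thymidine, counting label built into new DNA against DMSO-only control wells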
HCT-116 colon carcinoma = assay: Inhibition of cell proliferation (14C-thymidine incorporation), HCT-116; type: cell-based; details: Homo sapiens, HCT-116, HCT116
In short: as §1

HER2 = target: T5, HER2 (Homo sapiens, UniProt P04626); assay: HER2 kinase Screening Assay; type: biochemical; details: 33P-γ-ATP incorporation, 10 μM ATP
T5 construct: polyhistidine (N)
T5 sequence (P04626 676-1255 limits assumed): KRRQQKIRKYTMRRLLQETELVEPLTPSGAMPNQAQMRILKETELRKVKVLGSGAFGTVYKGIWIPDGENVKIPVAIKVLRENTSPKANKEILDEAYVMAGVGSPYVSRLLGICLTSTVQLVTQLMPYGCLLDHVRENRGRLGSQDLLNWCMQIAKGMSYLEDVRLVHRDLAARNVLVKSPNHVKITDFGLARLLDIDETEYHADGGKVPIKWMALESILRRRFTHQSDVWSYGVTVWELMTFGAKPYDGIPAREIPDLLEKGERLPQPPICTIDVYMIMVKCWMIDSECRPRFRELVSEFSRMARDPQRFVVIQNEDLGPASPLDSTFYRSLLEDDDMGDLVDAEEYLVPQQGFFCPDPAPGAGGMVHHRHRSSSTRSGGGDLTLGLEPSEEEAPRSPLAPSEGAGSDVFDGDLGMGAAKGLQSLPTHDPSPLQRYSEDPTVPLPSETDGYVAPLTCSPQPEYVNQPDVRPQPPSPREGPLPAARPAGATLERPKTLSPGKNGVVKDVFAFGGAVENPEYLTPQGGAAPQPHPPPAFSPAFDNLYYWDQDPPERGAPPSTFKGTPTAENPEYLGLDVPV

T2 sequence (P06493 whole entry): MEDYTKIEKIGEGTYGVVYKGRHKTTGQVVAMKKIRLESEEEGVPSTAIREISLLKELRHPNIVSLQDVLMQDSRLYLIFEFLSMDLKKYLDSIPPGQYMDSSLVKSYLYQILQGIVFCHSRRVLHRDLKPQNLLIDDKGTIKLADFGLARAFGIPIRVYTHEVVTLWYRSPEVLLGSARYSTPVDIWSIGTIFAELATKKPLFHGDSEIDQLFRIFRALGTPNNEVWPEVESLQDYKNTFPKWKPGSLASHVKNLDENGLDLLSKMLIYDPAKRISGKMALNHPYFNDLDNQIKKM
T2 sequence (P14635 whole entry partner): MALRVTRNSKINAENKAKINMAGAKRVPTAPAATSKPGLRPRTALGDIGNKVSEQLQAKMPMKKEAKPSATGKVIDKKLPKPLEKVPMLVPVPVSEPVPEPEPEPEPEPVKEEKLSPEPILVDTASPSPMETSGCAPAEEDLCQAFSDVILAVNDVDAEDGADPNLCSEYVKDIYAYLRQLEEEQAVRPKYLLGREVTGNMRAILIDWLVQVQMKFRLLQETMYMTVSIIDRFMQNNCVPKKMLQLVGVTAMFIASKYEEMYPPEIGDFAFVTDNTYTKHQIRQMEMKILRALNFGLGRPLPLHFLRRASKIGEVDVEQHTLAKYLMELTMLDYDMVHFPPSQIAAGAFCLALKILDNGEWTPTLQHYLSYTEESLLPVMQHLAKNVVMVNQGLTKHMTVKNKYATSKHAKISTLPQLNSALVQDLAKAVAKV
T1 sequence (O08775 786-1343): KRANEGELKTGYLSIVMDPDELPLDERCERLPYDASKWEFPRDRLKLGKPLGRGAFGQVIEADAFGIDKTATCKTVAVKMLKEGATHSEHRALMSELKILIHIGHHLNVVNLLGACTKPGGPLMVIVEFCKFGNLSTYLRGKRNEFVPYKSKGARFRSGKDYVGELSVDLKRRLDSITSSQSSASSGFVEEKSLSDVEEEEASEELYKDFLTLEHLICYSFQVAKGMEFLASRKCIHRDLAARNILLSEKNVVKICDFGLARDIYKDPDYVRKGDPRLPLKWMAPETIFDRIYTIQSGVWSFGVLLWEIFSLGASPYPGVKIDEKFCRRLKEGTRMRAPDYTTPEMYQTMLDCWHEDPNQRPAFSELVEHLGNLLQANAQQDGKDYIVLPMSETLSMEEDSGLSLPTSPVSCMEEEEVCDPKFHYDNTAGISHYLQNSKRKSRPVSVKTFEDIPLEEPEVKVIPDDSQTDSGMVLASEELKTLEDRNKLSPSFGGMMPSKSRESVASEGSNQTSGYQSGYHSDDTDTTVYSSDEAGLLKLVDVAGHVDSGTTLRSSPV

OCCc1ccc(Nc2nccc(-c3c[nH]c4ncccc34)n2)cc1 [Cpd 1, 2-{4-[4-(1H-Pyrrolo[2,3-b]pyridin-3-yl)-pyrimidin-2-ylamino]-phenyl}-ethanol]
IC50 (A375 malignant melanoma): 0.066 µM
IC50 (VEGF-R2): 0.087 µM
IC50 (CDK1:Cyclin-B): 0.019 µM
IC50 (Aurora-A): 0.159 µM
IC50 (RET): 0.337 µM
IC50 [1]: 0.056 µM
IC50 (HCT-116 colon carcinoma): 0.022 µM
IC50 (HER2): 0.008 µM

c1ccc(Nc2nccc(-c3c[nH]c4ncccc34)n2)cc1 [Cpd 3, Phenyl-[4-(1H-pyrrolo[2,3-b]pyridin-3-yl)-pyrimidin-2-yl]-amine]
IC50 (A375 malignant melanoma): 0.468 µM
IC50 (VEGF-R2): 0.213 µM
IC50 (CDK1:Cyclin-B): 0.054 µM
IC50 (Aurora-A): 0.159 µM
IC50 (RET): 1 µM
IC50 [1]: 0.382 µM
IC50 (HCT-116 colon carcinoma): 0.26 µM
IC50 (HER2): 0.032 µM

OCCOc1ccc(Nc2nccc(-c3c[nH]c4ncccc34)n2)cc1 [Cpd 4, 2-{4-[4-(1H-Pyrrolo[2,3-b]pyridin-3-yl)-pyrimidin-2-ylamino]-phenoxy}-ethanol]
IC50 (A375 malignant melanoma): 0.061 µM
IC50 (VEGF-R2): 0.01 µM
IC50 (CDK1:Cyclin-B): 0.021 µM
IC50 (Aurora-A): 0.173 µM
IC50 (RET): 1.41 µM
IC50 [1]: 0.062 µM
IC50 (HCT-116 colon carcinoma): 0.062 µM
IC50 (HER2): 0.01 µM

c1cnc2[nH]cc(-c3ccnc(Nc4ccc(CCN5CCNCC5)cc4)n3)c2c1 [Cpd 20, [4-(2-piperazin-1-yl-ethyl)-phenyl]-[4-(1H-pyrrolo[2,3-b]pyridin-3-yl)-pyrimidin-2-yl]-amine]
IC50 (A375 malignant melanoma): 0.11 µM
IC50 (VEGF-R2): 0.186 µM
IC50 (CDK1:Cyclin-B): 0.134 µM
IC50 (Aurora-A): 0.253 µM
IC50 (RET): 0.892 µM
IC50 [1]: 0.14 µM
IC50 (HCT-116 colon carcinoma): 0.037 µM
IC50 (HER2): 0.025 µM

c1cnc2[nH]cc(-c3ccnc(Nc4ccc(CCN5CCOCC5)cc4)n3)c2c1 [Cpd 22, [4-(2-Morpholin-4-yl-ethyl)-phenyl]-[4-(1H-pyrrolo[2,3-b]pyridin-3-yl)-pyrimidin-2-yl]-amine]
IC50 (A375 malignant melanoma): 0.055 µM
IC50 (VEGF-R2): 0.084 µM
IC50 (CDK1:Cyclin-B): 0.074 µM
IC50 (Aurora-A): 0.173 µM
IC50 (RET): 0.587 µM
IC50 [1]: 0.035 µM
IC50 (HCT-116 colon carcinoma): 0.018 µM
IC50 (HER2): 0.011 µM
